# From patent US12552757B2, “NRF2-activating compound” (SENJU PHARMACEUTICAL CO., LTD., priority 2019, dated 2026)
# Experiments:
# [1] = Measurement of metabolic stability in human liver microsomes; assay type: in vitro ADME; settings: residual ratio of test compound after 30 minutes at 37° C. with human liver microsome, LC/MS/MS
# Method: 1 mmol/L DMSO solutions of the compounds produced in the Examples were prepared. Each of the 1 mmol/L DMSO solutions was diluted with acetonitrile to 10 μmol/L, and then diluted with a 6.5 mmol/L Q-NADPH solution to 200 nmol/L. 50 μL of each solution was added to the reaction group and the non-reaction group. 50 μL of a 0.2 mg protein/mL human liver microsome (Mixed Gender, Pool of 50 livers; XenoTech, LLC) solution was added to the reaction group, followed by incubation at 37° C. for 30 minutes with shaking. After 400 μL of methanol was added to the non-reaction group, 50 μL of a 0.2 mg protein/mL human liver microsome solution was added to adjust the formulation. After incubation in the reaction group, 400 μL of methanol was added to stop the reaction. The samples of the reaction group and non-reaction group were allowed to stand at −20° C. for about 30 minutes, followed by centrifugation at 4° C. at 3000 rpm for about 10 minutes. The supernatant was analyzed using LC/MS/MS, and the residual ratio of the test compound was calculated from the peak area value of the test compound using the following formula. The measurement was carried out using the following devices: HPLC system: LC-20A-Series High Performance Liquid Chromatograph (Shimadzu Corporation) and mass spectrometer: API 4000 (AB Sciex Pte. Ltd.), or using equivalent devices. Residual ratio (%)=(peak area value of test compound in reaction group/peak area value of test compound in non-reaction group)×100 Results
# [2] = target: T1, binding between NRF2 and KEAP1 (Homo sapiens, UniProt Q14145); test: Measurement 1 of Nrf2 activating action (binding assay): BRET assay of inhibition of the binding between NRF2 and KEAP1; settings: 50% binding inhibitory concentration, NanoLuc-NRF2 / KEAP1-HaloTag cell lysates
# T1 construct: expressed in transfected cells; host or cells: HCE-T cells; each protein was expressed separately, and the two cell lysates were mixed in the well
# T1 sequence (Q14145 whole entry): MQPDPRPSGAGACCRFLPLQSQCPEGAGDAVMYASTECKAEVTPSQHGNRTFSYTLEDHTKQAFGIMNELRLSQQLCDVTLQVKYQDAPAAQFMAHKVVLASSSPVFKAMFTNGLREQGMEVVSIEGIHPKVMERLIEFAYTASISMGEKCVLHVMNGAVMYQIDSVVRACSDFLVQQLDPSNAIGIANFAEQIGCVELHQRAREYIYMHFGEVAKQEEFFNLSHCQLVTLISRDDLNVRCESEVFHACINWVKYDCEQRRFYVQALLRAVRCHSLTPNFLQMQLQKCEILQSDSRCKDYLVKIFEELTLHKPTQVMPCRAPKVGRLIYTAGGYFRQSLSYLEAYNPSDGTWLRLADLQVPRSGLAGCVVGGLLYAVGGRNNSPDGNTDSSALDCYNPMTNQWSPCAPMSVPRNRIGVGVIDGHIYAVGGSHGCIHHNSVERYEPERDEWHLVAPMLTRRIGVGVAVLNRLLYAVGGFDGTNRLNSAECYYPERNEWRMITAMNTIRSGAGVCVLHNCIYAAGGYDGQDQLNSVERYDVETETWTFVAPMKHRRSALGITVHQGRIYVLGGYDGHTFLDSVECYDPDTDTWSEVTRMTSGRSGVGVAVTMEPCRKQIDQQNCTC
# Method: Compounds 1 to 53 produced in the Examples were used as test substances.
# The inhibitory activity of each compound on the binding between NRF2 and KEAP1 was measured by bioluminescence resonance energy transfer (BRET) assay. A plasmid having human NRF2 (Original Clone ID: ha01449s1) sequence fused with NanoLuc (19 kDa, Promega) at the N-terminal was transduced into HCE-T cells using FuGENE HD (Promega). 48 hours after transduction, the cell lysate was collected and used as an NRF2-expressing cell lysate. A plasmid having human KEAP1 (Original Clone ID: cs00328) sequence fused with HaloTag (33 kDa, Promega) at the C-terminal was transduced into HCE-T cells using FuGENE HD (Promega). After 24 hours, HaloTag Nano BRET 618 Ligand (Promega) was added to the medium. The cell lysate cultured for 24 hours after the addition was used as a KEAP1-expressing cell lysate.
# The NRF2-expressing cell lysate and the KEAP1-expressing cell lysate were adjusted so that the luminescence and fluorescence intensities per well were constant. Tables 1 and 2 show the formulation of each reaction solution.
# Each test substance at a concentration 100 times higher than the test concentration was dissolved in dimethylsulfoxide for adjustment. 49 μL of KEAP1 solution was added to a 96-well polystyrene microplate (FALCON) to which 1 μL of each test substance solution was added, followed by incubation for 15 minutes. Then, 50 μL of NRF2 solution was added to the above solution, followed by incubation for 1 hour. To measure the binding between NRF2 and KEAP1, NanoBRET Nano-Glo Substrate (Promega) diluted with Opti-Mem (Thermo Fisher Scientific) was added, followed by shaking for 30 seconds. Then, luminescence and fluorescence were measured using the GloMax Discover System (Promega). A 495-nm short pass filter and a 600-nm long pass filter were respectively used to measure donor and acceptor emission values. A value obtained by dividing the acceptor emission value by the donor emission value was regarded as BRET value. A BRET value when the compound was not added, and a BRET value when the KEAP1 solution was not added were respectively used as binding rates of 100% and 0%, and the binding rate when the compound was added was calculated. Further, using this binding rate, the 50% binding inhibitory activity concentration (IC50) was calculated from the following formula: IC50(M)=10^(LOG(A/B)×(50−C)/(D−C)+LOG(B)) • A: higher concentration out of 2 close concentrations across the inhibition rate of 50% • B: lower concentration out of 2 close concentrations across the inhibition rate of 50% • C: inhibition rate at B • D: inhibition rate at A
Metabolic stability* [1],IC50 [2],Compound
77%,–,"CC[C@@H]1CN(Cc2cc(C(CC(=O)O)c3csc(C(=O)NC)c3)ccc2C)S(=O)(=O)c2ccccc2O1 (stereo partly drawn) [Compound 22, 3-(3-{[(R)-4-ethyl-1,1-dioxide-3,4-dihydro-2H-benzo[b][1,4,5]oxathiazepin-2-yl]methyl}-4-methylphenyl)-3-[5-(methylcarbamoyl)thiophen-3-yl]propanoic acid]"
69%,2.6 nM,"CC[C@@H]1CN(Cc2cc(C(CC(=O)O)c3ncc(C(C)=O)s3)ccc2C)S(=O)(=O)c2ccccc2O1 (stereo partly drawn) [Compound 40, 3-(5-acetylthiazol-2-yl)-3-(3-{[(R)-4-ethyl-1,1-dioxide-3,4-dihydro-2H-benzo[b][1,4,5]oxathiazepin-2-yl]methyl}-4-methylphenyl)propanoic acid]"
36%,–,"CC[C@@H]1CN(Cc2cc(C(CC(=O)O)c3cccs3)ccc2C)S(=O)(=O)c2ccccc2O1 (stereo partly drawn) [Compound 17, 3-(3-{[(R)-4-ethyl-1,1-dioxide-3,4-dihydro-2H-benzo[b][1,4,5]oxathiazepin-2-yl]methyl}-4-methylphenyl)-3-(thiophen-2-yl)propanoic acid]"
29%,2.5 nM,"CC[C@@H]1CN(Cc2cc(C(CC(=O)O)c3cc(C#N)n(C)c3)ccc2C)S(=O)(=O)c2ccccc2O1 (stereo partly drawn) [Compound 36, 3-(5-cyano-1-methyl-1H-pyrrol-3-yl)-3-(3-{[(R)-4-ethyl-1,1-dioxide-3,4-dihydro-2H-benzo[b][1,4,5]oxathiazepin-2-yl]methyl}-4-methylphenyl)propanoic acid]"
74%,–,"CC[C@@H]1CN(Cc2cc(C(CC(=O)O)c3ccc(C(=O)NC)s3)ccc2C)S(=O)(=O)c2ccccc2O1 (stereo partly drawn) [Compound 21, 3-(3-{[(R)-4-ethyl-1,1-dioxide-3,4-dihydro-2H-benzo[b][1,4,5]oxathiazepin-2-yl]methyl}-4-methylphenyl)-3-[5-(methylcarbamoyl)thiophen-2-yl]propanoic acid]"
53%,–,"CC[C@@H]1CN(Cc2cc(C(c3cc(F)c(C(C)=O)s3)C(C)C(=O)O)ccc2C)S(=O)(=O)c2cnccc2O1 (stereo partly drawn) [Compound 52, 3-(5-acetyl-4-fluorothiophen-2-yl)-3-(3-{[(R)-4-ethyl-1,1-dioxide-3,4-dihydro-2H-pyrido[4,3-b][1,4,5]oxathiazepin-2-yl]methyl}-4-methylphenyl)-2-methylpropanoic acid]"
32%,–,"CC[C@@H]1CN(Cc2cc(C(c3ccc(C(C)=O)s3)C(C)(C)C(=O)O)ccc2C)S(=O)(=O)c2ccccc2O1 (stereo partly drawn) [Compound 6, 3-(5-acetylthiophen-2-yl)-3-(3-{[(R)-4-ethyl-1,1-dioxide-3,4-dihydro-2H-benzo[b][1,4,5]oxathiazepin-2-yl]methyl}-4-methylphenyl)-2,2-dimethylpropanoic acid]"
30%,–,"CC[C@@H]1CN(Cc2cc(C(CC(=O)O)c3cc(C)c(C(C)=O)s3)ccc2C)S(=O)(=O)c2ccccc2O1 (stereo partly drawn) [Compound 7, 3-(5-acetyl-4-methylthiophen-2-yl)-3-(3-{[(R)-4-ethyl-1,1-dioxide-3,4-dihydro-2H-benzo[b][1,4,5]oxathiazepin-2-yl]methyl}-4-methylphenyl)propanoic acid]"
56%,–,"CC(=O)c1ccc(C(c2ccc(C)c(CN3C[C@@H](C)Oc4ccccc4S3(=O)=O)c2)C(C)(C)C(=O)O)s1 (stereo partly drawn) [Compound 12, 3-(5-acetylthiophen-2-yl)-2,2-dimethyl-3-(4-methyl-3-{[(R)-4-methyl-1,1-dioxide-3,4-dihydro-2H-benzo[b][1,4,5]oxathiazepin-2-yl]methyl}phenyl)propanoic acid]"
39%,–,"CC[C@@H]1CN(Cc2cc(C(CC(=O)O)c3cc(C(C)=O)cs3)ccc2C)S(=O)(=O)c2ccccc2O1 (stereo partly drawn) [Compound 10, 3-(4-acetylthiophen-2-yl)-3-(3-{[(R)-4-ethyl-1,1-dioxide-3,4-dihydro-2H-benzo[b][1,4,5]oxathiazepin-2-yl]methyl}-4-methylphenyl)propanoic acid]"
25%,–,"CC[C@@H]1CN(Cc2cc(C(CC(=O)O)c3sc(C(C)=O)cc3C)ccc2C)S(=O)(=O)c2ccccc2O1 (stereo partly drawn) [Compound 14, 3-(5-acetyl-3-methylthiophen-2-yl)-3-(3-{[(R)-4-ethyl-1,1-dioxide-3,4-dihydro-2H-benzo[b][1,4,5]oxathiazepin-2-yl]methyl}-4-methylphenyl)propanoic acid]"
47%,–,"CC[C@@H]1CN(Cc2cc(C(CC(=O)O)c3csc(C(C)=O)c3)ccc2C)S(=O)(=O)c2ccccc2O1 (stereo partly drawn) [Compound 15, 3-(5-acetylthiophen-3-yl)-3-(3-{[(R)-4-ethyl-1,1-dioxide-3,4-dihydro-2H-benzo[b][1,4,5]oxathiazepin-2-yl]methyl}-4-methylphenyl)propanoic acid]"
23%,–,"CC[C@@H]1CN(Cc2cc(C(CC(=O)O)c3ccc(C#N)s3)ccc2C)S(=O)(=O)c2ccccc2O1 (stereo partly drawn) [Compound 19, 3-(5-cyanothiophen-2-yl)-3-(3-{[(R)-4-ethyl-1,1-dioxide-3,4-dihydro-2H-benzo[b][1,4,5]oxathiazepin-2-yl]methyl}-4-methylphenyl)propanoic acid]"
27%,–,"CC[C@@H]1CN(Cc2cc(C(c3cc(F)c(C(C)=O)s3)C(C)(C)C(=O)O)ccc2C)S(=O)(=O)c2ccccc2O1 (stereo partly drawn) [Compound 11, 3-(5-acetyl-4-fluorothiophen-2-yl)-3-(3-{[(R)-4-ethyl-1,1-dioxide-3,4-dihydro-2H-benzo[b][1,4,5]oxathiazepin-2-yl]methyl}-4-methylphenyl)-2,2-dimethylpropanoic acid]"
75%,–,"CC[C@@H]1CN(Cc2cc(C(CC(=O)O)c3ccc(C(N)=O)s3)ccc2C)S(=O)(=O)c2ccccc2O1 (stereo partly drawn) [Compound 23, 3-(5-carbamoylthiophen-2-yl)-3-(3-{[(R)-4-ethyl-1,1-dioxide-3,4-dihydro-2H-benzo[b][1,4,5]oxathiazepin-2-yl]methyl}-4-methylphenyl)propanoic acid]"
38%,–,"CC[C@@H]1CN(Cc2cc(C(c3ccc(C(C)=O)s3)C(C)(C)C(=O)O)ccc2C)S(=O)(=O)c2c(F)cccc2O1 (stereo partly drawn) [Compound 9, 3-(5-acetylthiophen-2-yl)-3-(3-{[(R)-4-ethyl-9-fluoro-1,1-dioxide-3,4-dihydro-2H-benzo[b][1,4,5]oxathiazepin-2-yl]methyl}-4-methylphenyl)-2,2-dimethylpropanoic acid]"
53%,–,"CC[C@@H]1CN(Cc2cc(C(CC(=O)O)c3ccc(C(C)=O)s3)ccc2C)S(=O)(=O)c2ccccc2O1 (stereo partly drawn) [Compound 5, 3-(5-acetylthiophen-2-yl)-3-(3-{[(R)-4-ethyl-1,1-dioxide-3,4-dihydro-2H-benzo[b][1,4,5]oxathiazepin-2-yl]methyl}-4-methylphenyl)propanoic acid]"
36%,–,"CC[C@@H]1CN(Cc2cc(C(CC(=O)O)c3cc(F)c(C(C)=O)s3)ccc2C)S(=O)(=O)c2ccccc2O1 (stereo partly drawn) [Compound 8, 3-(5-acetyl-4-fluorothiophen-2-yl)-3-(3-{[(R)-4-ethyl-1,1-dioxide-3,4-dihydro-2H-benzo[b][1,4,5]oxathiazepin-2-yl]methyl}-4-methylphenyl)propanoic acid]"
